Laboratory results: US20250288687A1, “COMBINATION OF ANTIBODY-DRUG CONJUGATES AND DNMT INHIBITORS” (priority 2022, published 2025)

Assays:
[1] = system: TROP2 and SLFN11 expression; details: decitabine treatment; cited from earlier work
[2] = system: DLD-1 xenograft mouse model; test: Antitumor test, IMMU-132 with or without decitabine pre-treatment; assay type: in vivo, BALB/c-nu mice; details: IMMU-132 10 mg/kg IV Day 7, 14; with vs without DAC 0.5 mg/kg SC Day 0-4 pre-treatment; Day 28, Welch's t-test; FIG. 15
Procedure: Female BALB/c-nu mice aged 5 weeks (The Jackson Laboratory Japan, Inc.) were used, following 5 days acclimatization before entry into the study.
(§1) 3×10^6 of DLD-1 cells suspended in saline were implanted subcutaneously onto the flank of the mice. The major axis and the minor axis of the tumor were measured twice a week with an electronic digital caliper and the tumor volume was calculated by the following equation:
When the tumor volume reached approximately 100-150 mm^3, the tumor-bearing mice were randomly assigned to the treatment groups (Day 0) as shown in Table 2.
Statistical significance between IMMU-132 group and Decitabine+IMMU-132 group was evaluated using Welch's t-test on the tumor volumes at the day of the final measurement (Day 28).
Decitabine (DAC) was dissolved with Phosphate-buffered saline (PBS) and subcutaneously administered to the mice. IMMU-132 was dissolved with ABS buffer (10 mM Acetate buffer [pH5.5], 5% sorbitol) and intravenously administered to the tail vein of the mice. The dose volume of the compounds for each mouse was calculated based on the latest individual body weight measured within 2 days before dosing. DAC was subcutaneously administered at 0.5 mg/kg once a day from Day 0 to Day 4 (5 dosing in total). IMMU-132 was intravenously administered at 10 mg/kg to the tail vein on Day 7 and Day 14 (Weekly dosing×2).

[3] = system: xenograft cell lines of metaplastic cancer origin and mesenchymal subtype breast cancer cell lines; details: sacituzumab govitecan combined with decitabine; cited from earlier work
DLD-1 cells [4] = test: Cell growth inhibition study, DS-1062a with or without decitabine pre-treatment (CellTiter-Glo); assay type: cell-based, Human; details: DAC (1, 0.3, 0.1 μM, 3 days) treated vs untreated cells, DS-1062a 0.1-100 nM, 6 days, FIG. 12A
Procedure: (§2) Human colorectal cancer cell lines DLD-1 and HCT-15, obtained from American Type Culture Collection (ATCC), were incubated with RPMI1640 medium supplemented with 10% (v/v) heat-inactivated FBS, 1% (v/v) penicillin-streptomycin solution and 1 mM sodium pyruvate (Medium), with or without Decitabine (DAC) (Tokyo Chemical Industry Co., Ltd) at 1, 0.3 and 0.1 μM at 37° C. under 5% CO2 for 3 days. The cells were harvested and re-seeded at 1000 cells/80 μL/well into 96-well black clear bottom plates, and incubated overnight at 37° C. under 5% CO2. Then 20 μL of the DS-1062a solutions diluted with the Medium at the concentrations from 500 nM to 0.5 nM were added into the wells and incubated for 6 days for DLD-1 cells, and for 8 days for HCT-15 cells, respectively. The final concentrations of DS-1062a were 100, 10, 1 and 0.1 nM. After the incubation, the cellular ATP levels were measured using CellTiter-Glo Luminescent Cell Viability Assay (Promega) and a microplate reader.
(§3) Cell viability, defined as relative percent to the value of DS-1062a non-treated cells in each group treated with or without DAC, was assessed (N=1 (triplicate), mean±SD).
(§4) Individual cell viability (%) was calculated by the following equation:
(§5) [formula] • T: individual luminescence intensity of the wells treated with DS-1062a at each concentration • C: mean luminescence intensity of the wells treated without DS-1062a

HCT-15 cells = test: as above; assay type: cell-based, Human; details: DAC (1, 0.3, 0.1 μM, 3 days) treated vs untreated cells, DS-1062a 0.1-100 nM, 8 days, FIG. 12B
Procedure: as §2, §3, §4, §5

[5] = system: DLD-1 xenograft mouse model; test: Antitumor test, DS-1062a with or without decitabine pre-treatment; assay type: in vivo, BALB/c-nu mice; details: DS-1062a 10 mg/kg IV Day 7; DAC 0.5 mg/kg SC Day 0-4 pretreated vs untreated group; Day 28, Welch's t-test, P<0.05; FIG. 13
Procedure: Female BALB/c-nu mice aged 5-6 weeks (The Jackson Laboratory Japan, Inc.) were used, following 4 days acclimatisation before entry into the study.
as §1
When the tumor volume reached approximately 100-150 mm^3, the tumor-bearing mice were randomly assigned to treatment groups (Day 0) as shown in Table 1:
Decitabine (Tokyo Chemical Industry Co., Ltd) was dissolved and diluted with Phosphate-buffered saline (PBS) and subcutaneously administered to the mice. DS-1062a solution was diluted with ABS buffer (10 mM Acetate buffer [pH5.5], 5% sorbitol) and intravenously administered to the tail vein of the mice. The dose of the compounds for each mouse was calculated based on the individual body weight on the day of dosing. Decitabine was subcutaneously administered at 0.5 mg/kg once a day from Day 0 to Day 4 (5 dosing in total). […] Statistical significance between the ‘DS-1062a’ group and the ‘Decitabine+DS-1062a’ group was evaluated using Welch's t-test on the tumor volumes at the day of the final measurement (Day 28).

DLD-1 cells [6] = test: Cell growth inhibition study, DS-1062a with or without azacitidine pre-treatment (CellTiter-Glo); assay type: cell-based, Human; details: AZA (10, 3.3, 1.1 μM, 3 days) treated vs AZA untreated cells, DS-1062a 0.1-100 nM, 6 days, FIG. 14
Procedure: Human colorectal cancer cell line DLD-1 was incubated with RPMI1640 medium supplemented with 10% (v/v) heat-inactivated FBS (Medium), with or without Azacitidine (AZA) at 10, 3.3 and 1.1 μM at 37° C. under 5% CO2 for 3 days. The cells were harvested and re-seeded at 1000 cells/90 μL/well into a 96-well black clear bottom plate, and incubated overnight at 37° C. under 5% CO2. Then 10 μL of the DS-1062a solutions diluted with the Medium at the concentrations from 1000 nM to 1 nM were added into the wells and incubated for 6 days. The final concentrations of DS-1062a were 100, 10, 1 and 0.1 nM. After the incubation, the cellular ATP levels were measured using CellTiter-Glo Luminescent Cell Viability Assay (Promega Corporation) and a microplate reader.
Cell viability, defined as relative percent to the value of DS-1062a non-treated cells in each group treated with or without AZA, was assessed (N=1 (triplicate), mean±SD).
Individual cell viability (%) was calculated by the following equation;
as §5

Compound: Nc1ncn([C@H]2C[C@H](O)[C@@H](CO)O2)c(=O)n1 [decitabine, 5-aza-2′-deoxycytidine]
- TROP2 and SLFN11 expression [1]: upregulates

Compound: Sacituzumab govitecan [IMMU-132]
- antitumor activity (tumor volume) [2]: not significantly different
- antitumor efficacy [3]: enhances

Compound: datopotamab deruxtecan [DS-1062a]
- cell growth inhibitory activity (cell viability) (DLD-1 cells [4]): enhanced
- cell growth inhibitory activity (cell viability) (HCT-15 cells): enhanced
- antitumor activity (tumor volume) [5]: significantly enhanced
- cell growth inhibitory activity (cell viability) (DLD-1 cells [6]): enhanced
